Nine compounds from ChEMBL document CHEMBL1629519, “2-Hydroxypropyl-β-cyclodextrin strongly improves water solubility and anti-proliferative activity of pyrazolo[3,4-d]pyrimidines Src-Abl dual inhibitors” (Eur J Med Chem, 2010) can be followed below.

Usually solubility stands for the concentration that dissolves in the medium under given conditions. A low value points to little dissolved substance. Broadly, the logP is the decadic logarithm of the partition coefficient of the neutral form, usually between octanol and water. Usually IC50 stands for the concentration at which inhibition is half-maximal. Low values mean greater potency in that assay, high ones weaker potency in that assay.

The nature of data set [1]: Aqueous solubility of the compound in dimethyl sulfoxide. Type of data set: physicochemical. The conditions noted are these: aqueous solution with dimethyl sulfoxide.
Data set [2] in a line: Lipophilicity, log P of the compound. Type of data set: physicochemical. Conditions: octanol/water.
A short description of data set [3]: Solubility of the compound in 30 % hydroxypropyl-beta-cyclodextrins solution. It counts as physicochemical. The conditions noted are these: 30% hydroxypropyl-beta-cyclodextrin solution.
For another data set, the system named is HL-60. Description: Anti proliferative activity against human HL60 assessed as cell viability at 12.5 to 25 uM after 48 hrs by MTT assay. It counts as functional, cell-based. For orientation: Tetrazolium dyes change colour on reduction, which living cells bring about.
The subject of another data set is SAOS-2. In words: Anti proliferative activity against human Saos2 assessed as cell viability at 12.5 to 25 uM after 48 hrs by MTT assay. Type of data set: functional, cell-based.
In another data set the test system is K562. In words: Antiproliferative activity against human K562 cells after 3 days by ATP lite 1 step assay. Type of data set: functional, cell-based. Conditions: K562, 72 h.
A short description of data set [4]: Antiproliferative activity against human KU812 cells after 3 days by ATP lite 1 step assay. It counts as functional, cell-based. The conditions noted are these: KU812, 72 h.

Converted amounts (≈) assume the structure as drawn. The source made the active and inactive calls. The calls are words filed in the database; no cut-off is given here.

As to `CSc1nc(NCCc2cccc(F)c2)c2cnn(CC(Cl)c3ccccc3)c2n1` (configuration not stated), the solubility in data set [1] was determined as 0.588 µM (≈ 0.26 µg/mL); in data set [3], 790 µM (≈ 349 µg/mL). In addition, the log partition coefficient (logP) in data set [2] turned out to be 6.44.
Taken in the same sequence, the figures for `CCCSc1nc(NCc2cccc(Cl)c2)c2cnn(CC(Cl)c3ccccc3)c2n1` (configuration not stated) were 0.107 µM (≈ 0.0506 µg/mL), 910 µM (≈ 430 µg/mL) and 7.4.
Take `CSc1nc(NCc2ccccc2)c2cnn(CC(Cl)c3ccccc3)c2n1` (configuration not stated): the results for the solubility in data set [1] and in data set [3] were 0.512 µM (≈ 0.21 µg/mL) and 838 µM (≈ 344 µg/mL), respectively. In data set [2], the logP was found to be 5.49.
Consider `CC(O)COC[C@H]1O[C@@H]2O[C@H]3[C@H](O)[C@@H](O)[C@@H](O[C@H]4[C@H](O)[C@@H](O)[C@@H](O[C@H]5[C@H](O)[C@@H](O)[C@@H](O[C@H]6[C@H](O)[C@@H](O)[C@@H](O[C@H]7[C@H](O)[C@@H](O)[C@@H](O[C@H]8[C@H](O)[C@@H](O)[C@@H](O[C@H]1[C@H](O)[C@H]2O)O[C@@H]8COCC(C)O)O[C@@H]7COCC(C)O)O[C@@H]6COCC(C)O)O[C@@H]5COCC(C)O)O[C@@H]4COCC(C)O)O[C@@H]3COCC(C)O` (some centres not stated), for which the result in the data set on HL-60 and with SAOS-2 was inactive.
As to `CSc1nc(NCCc2ccccc2)c2cnn(CC(Cl)c3ccccc3)c2n1` (configuration not stated), the solubility in data set [1] amounted to 0.166 µM (≈ 0.0704 µg/mL); in data set [3], 947 µM (≈ 402 µg/mL).
Regarding `CSc1nc(NCc2cccc(Br)c2)c2cnn(CC(Cl)c3ccccc3)c2n1` (configuration not stated), the figures for the solubility in data set [1] and in data set [3] were 0.141 µM (≈ 0.0689 µg/mL) and 390 µM (≈ 191 µg/mL), respectively. In data set [2], the logP turned out to be 6.37.
Compound `CSc1nc(NCc2ccccc2F)c2cnn(CC(Cl)c3ccccc3)c2n1` (configuration not stated) displayed a logP in data set [2] of 5.88. In addition, the half-maximal inhibitory concentration (IC50) in the data set with K562 worked out at 6.11 µM; in data set [4], 7.87 µM.
Consider `CSc1nc(NCc2cccc(Cl)c2)c2cnn(CC(Cl)c3ccccc3)c2n1` (configuration not stated), for which the solubility in data set [1] is 0.295 µM (≈ 0.131 µg/mL); in data set [3], 314 µM (≈ 140 µg/mL). In data set [2], the logP amounted to 6.76. Further, the IC50 with K562 came out at 7.19 µM; in data set [4], 24.1 µM.
`CSc1nc(NCCc2ccc(Cl)cc2)c2cnn(CC(Cl)c3ccccc3)c2n1` (configuration not stated): the figures for the solubility in data set [1] and in data set [3] were 0.158 µM (≈ 0.0724 µg/mL) and 612 µM (≈ 281 µg/mL), respectively. The compound also had a logP in data set [2] of 7.41.
